The source of these data is patent publication US12709733B2, “Cell culture media” (Merck Patent GmbH, priority 2019, dated 2026).

The structures appear in SMILES notation. In brackets after ≈: the same amount, converted by molar mass.

The nature of data set [1]: Maximum solubility in water at 25° C. (saturated solution, residual mass after infrared drying). The conditions noted are these: for maximum solubilities obtained in water: separate experiments comparing Leu, Leu sodium salt and lac-Leu sodium salt; for Solubility 25° C. in g/kg (corresponding Lac-AA) / Solubility 25° C. in g/kg (amino acid) / increase in solubility compared to the respective amino acid: water; for Solubility 25° C. in g/kg (corresponding Lac-AA): Lac-AA sodium salt; for Solubility 25° C. in g/kg (corresponding Lac-AA) / solubility / Solubility 25° C. in g/kg (amino acid) / increase in solubility compared to the respective amino acid: 25° C.; for solubility: stated in description; for Solubility 25° C. in g/kg (amino acid): native amino acid. The class given is physicochemical. The method, then:
After sedimentation, the solution was dried using infrared (120° C., 120 min) and the residual mass was determined in g/kg.

Data set [2] can be described thus: Maximum solubility in Cellvento 4Feed depleted in Ile and Leu (turbidity measurement). The following applies: for solubility at 10 min: aqueous with cosolvent or surfactant or cyclodextrin, thermodynamic from solid, pH 7.0+/-0.2, 25° C., soluble = turbidity below 5 NTU; for solubility at 10 min / times more soluble than the native amino acid in Cellvento 4Feed depleted in Ile/Leu: 113 g/L feed; for times more soluble than the native amino acid in Cellvento 4Feed depleted in Ile/Leu: pH 7.0+/-0.2. The class given is physicochemical. The method, then: Increasing amounts of the Lac-Leu and Lac-Ile and salts thereof were added to a cell culture feed formulation (Cellvento® 4Feed) depleted in Ile and Leu. Similarly, increasing amounts of Ile and Leu were added to the same feed formulation as a control. The total concentration of this feed formulation was 113 g/L and the pH was 7.0+/−0.2. In small scale experiments, after each addition of either the amino acid or the Lac-AA, the feed was agitated for 10 mins and turbidity was measured. The experiments were performed at room temperature (25° C.).
A solution having a turbidity below 5 NTU is considered soluble.

Data set [3] can be described thus: Stability of Lac-AA in Cellvento 4Feed-Ile/Leu by LC-MS. The class given is physicochemical. The conditions noted are these: stored up to 3 months at 4° C. or RT protected from light. The procedure: To monitor the stability of Lac-AA in the complex feed mixture, a targeted quantitative LC-MS method was developed. Serial dilutions of Lac-Leu and Lac-Ile in Cellvento® 4Feed—Ile/Leu pH 7.0 were performed from 100 mM to 100 μM to determine the linearity of the method. A 200-fold dilution in water was performed prior to LC-MS analysis. The method was developed on a UHPLC (Vanquish, Thermo Fisher) coupled with an ESI-Q-ToF mass spectrometer (Impact II, Bruker Daltonics).
Briefly, 1 μL of sample were loaded in 99.9% buffer A (20 mM ammonium formate/0.1% FA) onto a XSelect HSS T3 column (2.1×150 mm, 3.5 μm, Waters) thermostated at 40° C. with a flowrate of 300 μL/min and eluted with a multistep gradient of buffer B (100% methanol) presented in Table 2.
LC-MS analyses were performed using the Impact II mass spectrometer equipped with an ESI source (Bruker Daltonics). MS acquisition was performed in negative mode with end plate offset and capillary voltages set at 500 and 3500 V, respectively. Nebulizer and dry gas (250° C.) were set at 1.4 bar and 9.0 L/min, respectively. MS spectra were acquired over the m/z range 20-1000 with a scan rate of 5 Hz. […]
Using the method previously developed, the stability of Lac-Ile and Lac-Leu in Cellvento® 4Feed-Ile/Leu was monitored in samples stored at 4° C. and RT protected from light for 3 months.

Data set [4] has as its system CHOK1GS suspension cell line expressing a human IgG1. Kind of data set: Fed-batch cell culture with Lac-AA replacing the amino acid in the feed, CHOK1GS clone. The class given is cell-based. The conditions noted are these: for concentration of Ile in the spent medium / concentration of Leu in the spent medium / effect on viable cell density (VCD) compared to positive control: 17-days fed-batch; for effect on viable cell density (VCD) compared to positive control: Lac-AA replacing amino acid in feed; for IgG titer compared to control: day 14; for increase of free lactate (area under the curve of lactate concentration): supernatant over the fed-batch process. The procedure:
For cell culture experiments, a CHOK1GS suspension cell line expressing a human IgG1, was used. Cells were cultivated in quadruplicate in Cellvento® 4CHO medium (Merck Darmstadt, Germany) using 50 mL spin tubes with a starting culture volume of 30 mL and a seeding density of 2×10^5 cells/mL.
Incubation was carried out at 37° C., 5% CO2, 80% humidity and an agitation of 320 rpm. The Lac-AA were added in the Feed (Cellvento® 4Feed depleted in Ile and leu) instead of their respective amino acids. The pH of all the feeds was neutral (pH 7.0+/−0.2). The positive control contained the normal amino acids whereas the negative control contained the feed depleted in the respective amino acid and without addition of Lac-AA. Feeding was carried out at days 3, 5, 7, 10, 12 and 14 at the following v/v ratios (3, 3, 6, 3, 3 and 3%). Glucose was quantified daily and adjusted to 6 g/L using a 400 g/L glucose solution. The experiment was repeated at least 3 times.
The viable cell density (VCD) and viability were evaluated with a Vi-CELL XR (Beckman Coulter, Fullerton, CA). Metabolite concentrations were monitored using a Cedex Bio HT (Roche Diagnostics, Mannheim, Germany) based on spectrophotometric and turbidometric methods. Quantification of amino acids was carried out via UPLC after derivatization with the AccQ·TagUltra® reagent kit. Derivatization, chromatography and data analysis were carried out following the supplier recommendations (Waters, Milford, MA).

Data set [5] concerns CHODG44 clone producing an IgG1. The data set can be described thus: Fed-batch experiments with a CHODG44 clone. The class given is cell-based. An excerpt:
Results (FIG. 16, 17, 18) indicate a similar VCD and IgG titer for the Lac-Leu and Lac-Ile conditions compared to the control positive control. […] The explanation for this difference in behavior between CHOK1GS cells and this DG44 cell line is currently unknown. The Leu and Ile concentrations in the spent media (FIG. 19 and) decreased during the first day of the FB culture to finally increase again after D7. This behavior is similar to the behavior seen for CHOK1GS cells and indicate a slow release process of the free AA from the derivatives.

The subject of data set [6] is CHOK1GS suspension cell line expressing a human IgG1. The data set can be described thus: Quality of the antibody produced in the fed-batch process (glycosylation, aggregation/fragmentation, charge variants). The class given is cell-based. The following applies: IgG1 purified from supernatant. The procedure: The quality of the antibody produced in the control fed-batch process (with feed containing Ile and Leu) was compared to the quality of the antibody produced with feed depleted in either Leu and Ile and supplemented with either Lac-Leu or Lac-Ile.
The antibody was purified from the cell culture supernatant using protein A PhyTips® (PhyNexus Inc, San Jose, CA). Glycosylation patterns were analyzed by capillary gel electrophoresis with laser-induced fluorescence (CGE-LIF) after derivatization using the GlykoPrep®-plus Rapid N-Glycan Sample Preparation kit with 8-aminopyrene-1,3,6-trisulfonic acid trisodium (APTS) (Prozyme, Hayward, CA) according to the manufacturer's instructions. […] After a cleaning step to remove the remaining APTS, the relative amounts of glycans were determined using the Pharmaceutical Analysis System CESI8000 Plus (Sciex, Washington, USA) with a LIF detector (Ex: 488 nm, Em: 520 nm). […]
Antibody aggregation and fragmentation were measured using size exclusion chromatography on an Water Acquity UPLC system using a TSKgel SuperSW3000 column (Tosoh Bioscience). […] The sample concentration was adjusted to 1.0 mg/mL after the IgG purification using the storage buffer and the detection was performed using the absorbance at 214 nm. […]

Turning to `CC(C)C[C@H](N)C(=O)[O-].[Na+]` [Leu sodium salt], the “maximum solubilities obtained in water” value in data set [1] was determined as 86.0 g/kg.

As for `CC(O)C(=O)NC(Cc1ccc(O)cc1)C(=O)[O-].[Na+]` (stereo not drawn) [Lac-Tyr sodium salt], the “Solubility 25° C. in g/kg (corresponding Lac-AA)” value in data set [1] came out at 101.9 g/kg.

The compound `CC[C@H](C)[C@H](N)C(=O)O` [Isoleucine] had a solubility at 10 min in data set [2] of around 105 mM (≈ 13.8 mg/mL). In addition, in data set [1], the solubility is given as 32.4 g/kg and the “Solubility 25° C. in g/kg (amino acid)” value is 32.4 g/kg.

Turning to `CC(C)C[C@H](NC(=O)C(C)O)C(=O)O` (stereo partly drawn) [Lac-Leu, N-lactoyl leucine], in data set [2], the “times more soluble than the native amino acid in Cellvento 4Feed depleted in Ile/Leu” value was determined as 6.6 times and the solubility at 10 min is around 600 mM (≈ 122 mg/mL). Moreover, the “stability in Cellvento 4Feed-Ile/Leu” value in data set [3] was “stable”. Besides, in data set [4], the “concentration of Ile in the spent medium” value is listed as “decreased after day 7”; the “concentration of Leu in the spent medium” value was “decreased very rapidly until day 7 and increased again afterwards”; the “effect on viable cell density (VCD) compared to positive control” value was “positive effect on the duration of the plateau phase”; the “IgG titer compared to control” value was “slight, but not significant higher titer”. Besides, the “increase of free lactate (area under the curve of lactate concentration)” value in data set [4] came to 20%. The “viable cell density in plateau phase” value in data set [4] (day 10 to day 14) was around 15 million cells/mL. In data set [5], the “IgG titer compared to positive control” value is “similar” and the “VCD compared to positive control” value is given as “similar”. The “glycosylation, high and low molecular weight species and charge variants of the IgG1 versus control condition” value in data set [6] is listed as “no difference”. In addition, in data set [1], the “increase in solubility compared to the respective amino acid” value is “around 30 fold”.

As for `N[C@@H](Cc1ccccc1)C(=O)O` [Phenylalanine], the “Solubility 25° C. in g/kg (amino acid)” value in data set [1] worked out at 26.0 g/kg.

Turning to `CSCC[C@H](N)C(=O)O` [Methionine], the “Solubility 25° C. in g/kg (amino acid)” value in data set [1] was 52.9 g/kg.

For the compound `CC(O)C(=O)NC(Cc1ccccc1)C(=O)[O-].[Na+]` (stereo not drawn) [Lac-Phe sodium salt], the “Solubility 25° C. in g/kg (corresponding Lac-AA)” value in data set [1] worked out at 483.1 g/kg.

With `CC[C@H](C)[C@H](NC(=O)C(C)O)C(=O)O` (stereo partly drawn) [Lac-Ile, N-lactoyl isoleucine], the “turbidity at maximum tested concentration” value in data set [2] (951 mM in Cellvento 4Feed depleted in Ile/Leu) is given as “below 5 NTU”. In addition, in data set [2], the “times more soluble than the native amino acid in Cellvento 4Feed depleted in Ile/Leu” value is on record as “at least 9 times” and the solubility at 10 min is at least 951 mM. Besides, the “stability in Cellvento 4Feed-Ile/Leu” value in data set [3] is given as “stable”. In addition, in data set [4], the “concentration of Ile in the spent medium” value was “decreased very rapidly until day 7 and increased again afterwards”; the “concentration of Leu in the spent medium” value is listed as “moderately decreased”; the “effect on viable cell density (VCD) compared to positive control” value is on record as “no effect on the peak VCD or overall VCD profile”; the “IgG titer compared to control” value is reported as “slight, but not significant higher titer”. The “increase of free lactate (area under the curve of lactate concentration)” value in data set [4] was 37%. Further, in data set [5], the “IgG titer compared to positive control” value is recorded as “similar” and the “VCD compared to positive control” value is “similar”. The “glycosylation, high and low molecular weight species and charge variants of the IgG1 versus control condition” value in data set [6] is “no difference”. Moreover, the “increase in solubility compared to the respective amino acid” value in data set [1] is on record as 20 fold.

`CC(C)[C@H](N)C(=O)O` [Valine]: the “Solubility 25° C. in g/kg (amino acid)” value in data set [1] is given as 57.8 g/kg.

`CC(C)C[C@H](N)C(=O)O` [Leucine] yielded a solubility at 10 min in data set [2] of around 90 mM (≈ 11.8 mg/mL). For the same compound, in data set [1], the solubility entry is recorded as “about 22.1 g/kg”, the “maximum solubilities obtained in water” value is 22.1 g/kg and the “Solubility 25° C. in g/kg (amino acid)” value is on record as 22.1 g/kg.
